Assay [1] relates to PqsR (PqsR-controlled pqsA promoter, PAO1-L mCTX::PpqsA-lux). Description: Bioluminescent reporter assay, PAO1-L mCTX::PpqsA-lux. It counts as cell-based, Pseudomonas aeruginosa. To be noted: for pqs inhibitory activity in the PA bioluminescent reporter assay, in words: reporter strains; for reduction in potency compared with 6f: PAO1-L; for IC50: Pseudomonas aeruginosa; for activity relative to 6f / to each other, in words: PAO1-L reporter (6i, 6j, 6s: both reporter strains). Here is the method: (§1) An extensive SAR was performed on 6a to investigate the role of substitutions around various positions of the benzimidazole ring (groups R1–R3) as well as the aromatic tail (groups R4–R5) to fine-tune the potency of this series (6a–u) (Table 2). The activity of these analogues to inhibit the pqs QS system was evaluated in the PAO1-L and PA14 strains (that belong to the two major P. aeruginosa genomic lineages), both harboring a chromosomally integrated mCTX::PpqsA-lux transcriptional fusion to report for the activity of pqs system. Successful pharmacological blocking of AQ signal reception at the level of PqsR leads to a reduced transcription of the pqsA-lux genes and ultimately reduction in the luminescence readout.
(§2) Strains PA14 mCTX::PpqsA-lux and PAO1-L mCTX::PpqsA-lux were used to detect PqsR-controlled activation of the pqsA promoter, as previously described,[45] and the assay was performed according to a published method.[46] For initial screening, the compounds were tested at a concentration of 10 μM, which was prepared from a 10 mM stock, in DMSO.
(In a reporter assay the amount or activity of a reporter protein is the signal.)

For assay [2], the system named is PqsR (PqsR-controlled pqsA promoter, PA14 mCTX::PpqsA-lux). Kind of assay: Bioluminescent reporter assay, PA14 mCTX::PpqsA-lux. In kind it is cell-based. To be noted: Pseudomonas aeruginosa. Here is the method:
as §1, §2

The test system of assay [3] is pyocyanin production in P. aeruginosa. Description: Pyocyanin quantification. It counts as cell-based, Pseudomonas aeruginosa. The note with it: PAO1-L; concentration three times the IC50; relative to DMSO. Here is the method:
This assay was extended further to investigate the effect of 6f on pyocyanin production in different P. aeruginosa at 6f concentration of 200 nM (Figure 5b).
The experiment was performed following a published protocol with minor modifications. Strains were cultured into 5 mL of fresh medium overnight. […] Cells were centrifuged at 10 000 RCF for 10 min (Allegra 64R centrifuge, Beckman Coulter, High Wycombe, UK), and the supernatant was transferred to 15 mL falcon tubes with a HSW 10 mL Soft-Ject Syringe and a […] Sartorius syringe-driven filter (Fisher Brand, Loughborough, UK). Pyocyanin pigment was extracted into chloroform by mixing 7.5 mL of supernatant with 4.5 mL of chloroform. Pyocyanin was further extracted into 1.5 mL of 0.2 M HCL, which gave a pink/red solution, and the absorbance was measured at 520 nm.[47]

The mark [4] stands for this setting: PA14, read-out: IC50 (μM) PA14 mCTX::PpqsA-lux.
Setting [5] is: PAO1, read-out: IC50 (μM) PAO1-L mCTX::PpqsA-lux.

Where two headings read alike, the source gives them in different places.

These results are taken from PMC10823468, “Design, Synthesis, and Evaluation of New 1H-Benzo[d]imidazole Based PqsR Inhibitors as Adjuvant Therapy for Pseudomonas aeruginosa Infections” (Journal of Medicinal Chemistry, 2024).

On to “2-(4-(3-((5,6-Dichloro-1-methyl-1H-benzo[d]imidazol-2-yl) amino)-2-hydroxypropoxy) phenyl) Acetonitrile [Compound 6c]”, for which the “pqs inhibitory activity in the PA bioluminescent reporter assay, in words” value (from here on “pqs inhibitory activity”) in assay [1] is reported as “abolished the activity”.

As a reminder, the IC50 is the point on the concentration scale where inhibition reaches its midpoint. On to `N#CCc1ccc(OCC(O)CNc2nc3ccc(Cl)cc3n2C2CCCC2)cc1` (stereo not drawn) [Compound 6k, 2-(4-(3-((6-Chloro-1-cyclopentyl-1H-benzo[d]imidazol-2-yl)amino)-2-hydroxypropoxy)phenyl) Acetonitrile], for which the results for the IC50 in assay [2] (setting [4]) and in assay [1] (setting [5]) were 0.47 ± 0.1 µM and 0.44 ± 0.1 µM, respectively. Further, the “reduction in potency compared with 6f” value in assay [1] was about 6 fold.

As for `COCCn1c(NCC(O)COc2ccc(CC#N)cc2)nc2ccc(Cl)cc21` (stereo not drawn) [Compound 6t, 2-(4-(3-((6-Chloro-1-(2-methoxyethyl)-1H-benzo[d]imidazol-2-yl)amino)-2-hydroxypropoxy)phenyl) Acetonitrile], the IC50 in assay [2] (setting [4]) was 0.2 ± 0.05 µM; in assay [1] (setting [5]) it was 0.18 ± 0.04 µM. In addition, the “reduction in potency compared with 6f” value in assay [1] turned out to be 2 fold.

As to `CC(C)n1c(NC[C@H](O)COc2ccc(CC#N)cc2)nc2ccc(Cl)cc21` [Compound 6v], in assay [1], the “activity relative to 6f / to each other, in words” value was “comparable activity to the racemic compound 6f”.

Take `CC(C)n1c(NC[C@@H](O)COc2ccc(CC#N)cc2)nc2ccc(Cl)cc21` [Compound 6w]: in assay [1], the “activity relative to 6f / to each other, in words” value is listed as “comparable activity to the racemic compound 6f”.

For the compound `N#CCc1ccc(OCC(O)CNc2nc3ccc(Cl)cc3o2)cc1` (stereo not drawn) [Compound 7], in assay [1], the “pqs inhibitory activity” value is recorded as “abolished pqs inhibitory activity”.

For `N#CCc1ccc(OCC(O)CNc2nc3ccc(Cl)cc3n2C2CCCCC2)cc1` (stereo not drawn) [Compound 6l, 2-(4-(3-((6-Chloro-1-cyclohexyl-1H-benzo[d]imidazol-2-yl)amino)-2-hydroxypropoxy)phenyl) Acetonitrile], the IC50 in assay [2] (setting [4]) was 1.4 ± 0.1 µM; in assay [1] (setting [5]), 1.7 ± 0.5 µM. In addition, the “reduction in potency compared with 6f” value in assay [1] is 25 fold.

With `CC(C)n1c(NCC(O)COc2ccc(CC#N)cc2)nc2ccccc21` (stereo not drawn) [Compound 6p, 2-(4-(2-Hydroxy-3-((1-isopropyl-1H-benzo[d]imidazol-2-yl)amino)propoxy)phenyl) Acetonitrile], the IC50 is 1.03 µM in assay [2] (setting [4]) and 0.77 µM in assay [1] (setting [5]).

In the case of “2-(4-(3-((5-Chloro-1-methyl-1H-benzo[d]imidazol-2-yl)amino)-2-hydroxypropoxy)phenyl) Acetonitrile [Compound 6b]”, in assay [1], the “pqs inhibitory activity” value was “abolished the activity”.

Consider `N#CCc1ccc(OCC(O)CNc2nc3ccc(Cl)cc3s2)cc1` (stereo not drawn) [Compound 8], for which the “pqs inhibitory activity” value in assay [1] is “abolished pqs inhibitory activity”.

Turning to `CN1CCC(n2c(NCC(O)COc3ccc(CC#N)cc3)nc3ccc(Cl)cc32)CC1` (stereo not drawn) [Compound 6r, 2-(4-(3-((6-Chloro-1-(1-methylpiperidin-4-yl)-1H-benzo[d]imidazol-2-yl)amino)-2-hydroxypropoxy)phenyl) Acetonitrile], the “pqs inhibitory activity” value in assay [1] was “not active”.

Take `CC(C)n1c(NCC(O)COc2ccc(CC#N)c(F)c2)nc2ccc(Cl)cc21` (stereo not drawn) [Compound 6o, 2-(4-(3-((6-Chloro-1-isopropyl-1H-benzo[d]imidazol-2-yl)amino)-2-hydroxypropoxy)-2-fluorophenyl) Acetonitrile]: the IC50 in assay [2] (setting [4]) is 0.09 ± 0.01 µM; in assay [1] (setting [5]), 0.06 ± 0.03 µM.

`N#CCc1ccc(OCC(O)CNc2nc3ccc(Cl)cc3n2CCO)cc1` (stereo not drawn) [Compound 6u, 2-(4-(3-((6-Chloro-1-(2-hydroxyethyl)-1H-benzo[d]imidazol-2-yl)amino)-2-hydroxypropoxy)phenyl) Acetonitrile]: the IC50 was determined as 0.1 ± 0.02 µM in assay [2] (setting [4]) and 0.18 ± 0.05 µM in assay [1] (setting [5]). Besides, in assay [1], the “reduction in potency compared with 6f” value was determined as 2 fold.

Take `N#CCc1ccc(OCC(O)CNc2nc3ccc(Cl)cc3n2C2CCC2)cc1` (stereo not drawn) [Compound 6j, 2-(4-(3-((6-Chloro-1-cyclobutyl-1H-benzo[d]imidazol-2-yl)amino)-2-hydroxypropoxy)phenyl) Acetonitrile]: the IC50 in assay [2] (setting [4]) was 0.31 ± 0.05 µM; in assay [1] (setting [5]), 0.16 ± 0.01 µM. Moreover, the “activity relative to 6f / to each other, in words” value in assay [1] was “comparable potencies to 6f”.

As to `N#CCc1ccc(OCC(O)CNc2nc3ccc(Cl)cc3n2CCOCc2ccccc2)cc1` (stereo not drawn) [Compound 6m, 2-(4-(3-((1-(2-(Benzyloxy)ethyl)-6-chloro-1H-benzo[d]imidazol-2-yl)amino)-2-hydroxypropoxy)phenyl) Acetonitrile], the “reduction in potency compared with 6f” value in assay [1] came to 14 fold. For the same compound, in assay [1] (setting [5]), the IC50 was determined as 1.06 µM.

For `Cn1c(NCC(O)COc2ccc(CC#N)cc2)nc2ccc(Cl)cc21` (stereo not drawn) [Compound 6a, 2-(4-(3-((6-Chloro-1-methyl-1H-benzo[d]imidazol-2-yl)amino)-2-hydroxypropoxy)phenyl) Acetonitrile], the IC50 worked out at 0.2 ± 0.02 µM in assay [2] (PA14, read-out: IC50 (μM) PA14 PpqsA-lux) and 0.21 ± 0.04 µM in assay [1] (PAO1, read-out: IC50 (μM) PAO1-L PpqsA-lux). Moreover, the “enhancement of activity compared to 1” value in assay [1] (PAO1-L laboratory strain) is on record as 15 fold.

In the case of `CC(C)(C)n1c(NCC(O)COc2ccc(CC#N)cc2)nc2ccc(Cl)cc21` (stereo not drawn) [Compound 6g, 2-(4-(3-((1-(tert-Butyl)-6-chloro-1H-benzo[d]imidazol-2-yl)amino)-2-hydroxypropoxy)phenyl) Acetonitrile], the IC50 is 0.23 ± 0.01 µM in assay [2] (setting [4]) and 0.22 ± 0.01 µM in assay [1] (setting [5]). Also, in assay [3], the “inhibition of pyocyanin production” value is reported as about 80%.

For the compound `CN(C)CCn1c(NCC(O)COc2ccc(CC#N)cc2)nc2ccc(Cl)cc21` (stereo not drawn) [Compound 6q, 2-(4-(3-((6-Chloro-1-(2-(dimethylamino)ethyl)-1H-benzo[d]imidazol-2-yl)amino)-2-hydroxypropoxy)phenyl) Acetonitrile], the “pqs inhibitory activity” value in assay [1] is reported as “obliterated the biological activity”.

In the case of `CC(C)(C)Cn1c(NCC(O)COc2ccc(CC#N)cc2)nc2ccc(Cl)cc21` (stereo not drawn) [Compound 6h, 2-(4-(3-((6-Chloro-1-neopentyl-1H-benzo[d]imidazol-2-yl)amino)-2-hydroxypropoxy)phenyl) Acetonitrile], the IC50 in assay [2] (setting [4]) was found to be 0.25 µM; in assay [1] (setting [5]) it was 0.38 µM. In addition, the “reduction in potency compared with 6f” value in assay [1] is listed as about 6 fold.

With `N#CCc1ccc(OCC(O)CNc2nc3ccc(Cl)cc3n2C2CC2)cc1` (stereo not drawn) [Compound 6i, 2-(4-(3-((6-Chloro-1-cyclopropyl-1H-benzo[d]imidazol-2-yl)amino)-2-hydroxypropoxy)phenyl) Acetonitrile], the values for the IC50 in assay [2] (setting [4]) and in assay [1] (setting [5]) were 0.09 ± 0.02 µM and 0.07 ± 0.03 µM, respectively. In addition, the “activity relative to 6f / to each other, in words” value in assay [1] was “comparable potencies to 6f”.

In the case of `N#CCc1ccc(OCC(O)CNc2nc3ccc(Cl)cc3n2C2COC2)cc1` (stereo not drawn) [Compound 6s, 2-(4-(3-((6-Chloro-1-(oxetan-3-yl)-1H-benzo[d]imidazol-2-yl)amino)-2-hydroxypropoxy)phenyl) Acetonitrile], the IC50 in assay [2] (setting [4]) is 0.21 ± 0.03 µM; in assay [1] (setting [5]) it was 0.24 ± 0.02 µM. Further, the “activity relative to 6f / to each other, in words” value in assay [1] is “comparable potencies to 6f”.

Take `Cn1c(SCC(O)COc2ccc(CC#N)cc2)nc2ccc(Cl)cc21` (stereo not drawn) [Compound 11]: the “pqs inhibitory activity” value in assay [1] is reported as “abolished pqs inhibitory activity”.
